Patent US9265774B2, “Methods, compounds and pharmaceutical compositions for treating anxiety and mood disorders” (New York University, priority 2011, dated 2016)

Assays:
Fos expression in the LC = Fos expression in the LC during the RFS model; format: in vivo, mice; details: dp6FNE 3 mg/kg i.p. 15 min prior to the 5th swim, with prazosin 0.2 mg/kg; swum animals, versus vehicle
Description: (§1) In the RFS study, mice were subjected to 4 daily 15 min swims as described above and were injected i.p. with either vehicle or dp6FNE (3 mg/kg) 15 min prior to the 5th swim. In the TST study, animals were injected similarly before a 6 min test. […] The animals were anesthetized and perfused for immuno-histochemistry 70 min after the start of the swim or tail suspension. Brains were processed as described previously for double-label immunofluorescent Fos/tyrosine hydroxylase staining of all sections through the LC and for single-label Fos staining through the full PVH (Stone et al., Brain Res (2009) 1291: 21-31). […] In the tail suspended mice the analogous reductions were 53.5±7.2% (LC) and 36.7±3.1 (PVH). […] These findings thus indicate that a dose of […] dp6FNE that has preferential inhibitory effects on the LC during depression exists.

[1] = system: CMS reduction of intake of sweetened milk; assay: Chronic mild stress (CMS)-anhedonia model, consumption of sweetened milk; format: in vivo; details: acute i.p. dp6FNE
[2] = prazosin: at 0.2 mg/kg in mice; cited from earlier work
[3] = system: immobility in tail suspension test; assay: Tail suspension test (TST); format: in vivo, mice
Description: In the RFS study, mice were subjected to 4 daily 15 min swims as described above and were injected i.p. with either vehicle or dp6FNE (3 mg/kg) 15 min prior to the 5th swim. In the TST study, animals were injected similarly before a 6 min test. […] The animals were anesthetized and perfused for immuno-histochemistry 70 min after the start of the swim or tail suspension. Brains were processed as described previously for double-label immunofluorescent Fos/tyrosine hydroxylase staining of all sections through the LC and for single-label Fos staining through the full PVH (Stone et al., Brain Res (2009) 1291: 21-31).
To determine if dp6FNE was active in a more traditional test of antidepressant activity, it was given as above 15 min prior to a tail suspension test.
(§2) The first test involves an acute stress-induced model of depression (Steru, et al., Psychopharmacology 1985; 85: 367-370) whereas the second, a more prolonged, chronic depression that is more akin to chronic human depression (Stone, et al., Pharmacol Biochem Behav 2008; 91: 190-195).

[4] = system: repeated open-space swim model; assay: Repeated open-space (forced) swim test; format: in vivo, mice; details: acute i.p., dp6FNE at 1, 3 and 10 mg/kg given along with phentolamine 5 mg/kg i.p.
Description: as §2

[5] = system: Fos expression in the PVH; assay: Fos expression in the PVH in the tail suspension test; format: in vivo, mice; details: dp6FNE 3 mg/kg i.p. before a 6 min tail suspension test, with prazosin 0.2 mg/kg
Description: as §1

[6] = system: endotoxin-induced inhibition of the female urine sniffing test (FUST); assay: Endotoxin (LPS)-induced anhedonia, female urine sniffing test (FUST); format: in vivo, mice
Description: To determine if dp6FNE would also be active in an anhedonia-based model of depression, the compound was tested for its ability to reverse an endotoxin-induced inhibition of the female urine sniffing test (FUST), a non-nutritive hedonic behavior, whose impairment by stress was recently validated as a model of depression in this species (Malkesman et al., Biol Psychiatry (2010) 67: 864-871) A non-nutritive rewarding behavior was used because dp6FNE, like most other acutely administered antidepressants, has initial anorexic effects that inhibit the consumption of sweet solutions (Currie et al., Brain Res (1998) 800: 62-68). […] The repeated forced swim (RFS) model could not be used for this test because it is not a severe enough stress to reliably produce anhedonia in this species (Stone et al., Pharmacol Biochem Behav (2008b) 91: 190-195).
Male mice were trained to sniff estrous urine (verified by vaginal smears) presented on cotton swabs in the home cage over 3 d and were matched on sniffing duration (proximity to the swab in a 3 min test) into control and depression groups. These groups were administered i.p. control solution (H2O) or lipopolysaccharide (LPS), 400 μg/kg, respectively, and were left undisturbed for 24 h, which is necessary for the initial sickness behavior, but not the anhedonia, to subside (Frenois et al., Psychoneuroendocrinology (2007) 32: 516-531).

[7] = system: locomotor behavior in an open field; assay: Open field locomotor behavior after ivt. 6FNE or i.p. dp6FNE versus amphetamine; format: in vivo, mice; details: 6FNE ivt. or dp6FNE i.p.
Description: 6FNE and dp6FNe were tested for their effects on motor activity by measuring locomotor behavior in an open field after either ivt. (6FNE) or i.p. injection (dp6fNE) in mice. These mice were compared to animals that were either non handled or received either a vehicle ivt injection or an i.p. injection of the stimulant, amphetamine (5 mg/kg). The results are shown in FIG. 6 and in (Stone, Lin Y, Sarfraz Y, and Quartermain D, 2011). […] Furthermore, the increase in activity after 6FNE was minor in comparison with the bona fide stimulant, amphetamine which produced a 10 fold increase. The small increase over the vehicle group therefore appears to be the result of a reduction of the stress caused by the handling and restraint for the ivt. injection which is in agreement with the reduced activation of brain stress circuits discussed above. This interpretation was supported by an examination of the time in the center or risky area of the field spent by the various groups. […] A slight reduction in motor behavior at the low doses (0.1-0.3 mg/kg) were, however, observed.

**Q.** For `CC(C)(C)C(=O)Oc1cc(F)c(C(O)CN)cc1OC(=O)C(C)(C)C` (stereo not shown) [dp6FNE, dipivalyl-6-fluoronorepinephrine], which “reduction in gene expression (Fos) in the LC” value (Fos expression in the LC) is on record?
**A.** 33.6±6.8

**Q.** And the “effect on CMS reduction of sweetened milk intake” value [1]?
**A.** eliminates the CMS reduction of intake

**Q.** And the “effect on food intake (hypophagia)” value [1]?
**A.** significant hypophagia

**Q.** And the “passage of the blood brain barrier” value [2]?
**A.** does pass the blood brain barrier

**Q.** What about the “immobility in tail suspension test” value ([3]; 3 mg/kg i.p. with prazosin 0.2 mg/kg, 15 min prior to test) of the same compound?
**A.** significant reduction of immobility

**Q.** What about the “antidepressant action in the tail suspension test” value ([3]; i.p. at doses of 1, 3 and 10 mg/kg, given along with phentolamine 5 mg/kg i.p.) of the same compound?
**A.** significant antidepressant action

**Q.** And the “acute effect in the repeated open-space swim test” value [4]?
**A.** strong effect

**Q.** What about the “acute effect in the repeated open-space swim test” value ([4]; listed as 6dpFNE) of the same compound?
**A.** significant antidepressant action

**Q.** And the “reduction in gene expression (Fos) in the PVH” value [5]?
**A.** 36.7±3.1

**Q.** What about the “change of time sniffing, Con vs LPS” value ([6]; dp6FNE (1 mg/kg) i.p. with prazosin 0.2 mg/kg, 15 min before test, 24 h after LPS 400 μg/kg) of the same compound?
**A.** +4.6±1.4%

**Q.** And the “effect on the FUST in the absence of endotoxin” value ([6]; dp6FNE i.p. with prazosin 0.2 mg/kg, control (H2O) animals)?
**A.** did not significantly affect the FUST

**Q.** What about the “effect on motor activity in the open field” value [7] of the same compound?
**A.** did not produce any stimulation of motor behavior

**Q.** And the “time in the center of the field” value [7]?
**A.** significant increase in the time in the center of the field
